Measurements published in US6395745B1, “Alkaloid halide salts of swainsonine and methods of use” (priority 1997, dated 2002).

Legend:
[1] = biological target: T1, purified rat liver Golgi mannosidase II (Rattus norvegicus, UniProt P28494); experiment: Inhibition of purified Golgi mannosidase II in vitro (p-nitrophenyl mannopyranoside); format: biochemical; settings: pH 5.6, 60 minutes at 37° C.
T1 construct: 15 μl of purified rat liver Golgi mannosidase II; from tissue; host or cells: rat liver
T1 sequence (P28494 1-1148): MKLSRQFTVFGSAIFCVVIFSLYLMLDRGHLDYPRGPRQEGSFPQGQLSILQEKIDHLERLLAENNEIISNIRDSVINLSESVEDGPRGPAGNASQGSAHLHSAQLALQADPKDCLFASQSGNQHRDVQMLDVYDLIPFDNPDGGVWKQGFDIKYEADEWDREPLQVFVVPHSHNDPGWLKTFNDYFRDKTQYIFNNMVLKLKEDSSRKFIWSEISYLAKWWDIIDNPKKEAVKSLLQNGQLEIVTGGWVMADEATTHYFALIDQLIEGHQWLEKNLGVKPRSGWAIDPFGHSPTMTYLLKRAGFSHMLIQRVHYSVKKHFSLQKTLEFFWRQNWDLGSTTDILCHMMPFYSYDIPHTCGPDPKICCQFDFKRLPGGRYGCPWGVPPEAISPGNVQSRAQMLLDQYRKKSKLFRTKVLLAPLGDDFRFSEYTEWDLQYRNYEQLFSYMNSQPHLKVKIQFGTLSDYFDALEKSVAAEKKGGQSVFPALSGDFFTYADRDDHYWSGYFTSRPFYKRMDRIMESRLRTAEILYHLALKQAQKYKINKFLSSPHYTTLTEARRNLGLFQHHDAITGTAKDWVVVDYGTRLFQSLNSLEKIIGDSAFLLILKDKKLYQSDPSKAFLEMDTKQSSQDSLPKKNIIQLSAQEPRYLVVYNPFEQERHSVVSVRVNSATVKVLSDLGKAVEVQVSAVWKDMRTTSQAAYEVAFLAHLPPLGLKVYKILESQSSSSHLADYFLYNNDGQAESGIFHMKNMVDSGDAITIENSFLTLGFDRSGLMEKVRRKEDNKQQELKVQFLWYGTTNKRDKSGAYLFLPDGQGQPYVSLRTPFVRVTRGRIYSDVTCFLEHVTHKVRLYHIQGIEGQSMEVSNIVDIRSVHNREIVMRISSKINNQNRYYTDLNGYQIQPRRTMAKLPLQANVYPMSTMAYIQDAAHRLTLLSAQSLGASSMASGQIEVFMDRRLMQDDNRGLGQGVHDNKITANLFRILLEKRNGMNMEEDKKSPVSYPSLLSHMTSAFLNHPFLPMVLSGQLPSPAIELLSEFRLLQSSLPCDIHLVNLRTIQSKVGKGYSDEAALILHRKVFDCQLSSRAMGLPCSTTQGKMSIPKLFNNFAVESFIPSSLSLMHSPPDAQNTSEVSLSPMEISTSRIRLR
Description: The test compound swainsonine is prepared by 0.4 serial dilution of a 40 μM stock. Present in each determination is 10 μl diluted test compound, 25 μl of 10 mM paranitrophenyl mannopyranoside, 200 mM sodium acetate, pH 5.6 and 15 μl of purified rat liver Golgi mannosidase II. After incubating the reaction for 60 minutes at 37° C., the reaction is quenched with 50 μl of 0.5 M sodium carbonate. Absorption is read at […]. After subtracting the blank from positive controls and samples, the samples are normalized against the positive control mean using a variable slope, sigmoidal curve fit, with bottom=0, top=100. The signal is proportional to the amount of products from the uninhibited reaction.

[2] = system: SP1.A3a mouse mammary adenocarcinoma; experiment: SP1.A3a tumor growth in mice, oral administration in drinking water; format: in vivo, CBA/J mice
Description: The experiment was repeated using swainsonine hydrochloride administered in drinking water. SP1.A3a mouse mammary adenocarcinoma were maintained in exponential growth in RPMI 1640 medium containing 10% FBS. The cells were harvested and re-suspended at 3×10^5/ml in PBS and 0.1 ml containing 3×10^4 cells injected S.C. into the right flank of 7 week old female CBA/J mice (Jackson Laboratories) (n=25). The mice were subsequently supplied with drinking water alone (n=13) or drinking water containing 10 μg/ml swainsonine hydrochloride (n=12) (equivalent to a dose of 2 mg/kg/day).
Once a palpable tumor was evident, tumor size was measured twice a week using vernier callipers. At the end of the treatment period the tumors were excised and weighed.

[3] = Preformulation solubility in vehicles; format: physicochemical
Description: (§1) Preformulation studies of swainsonine hydrochloride, bulk drug substance, and in combination with powder and semisolid fill gelatin capsules were conducted with respect to the following: hygroscopicity, pH, stability, and solubility. […] At 20% and 50% RH it absorbed 1.9% and 2.1% of water by Karl Fischer after 48 hours of storage. The moisture uptake diminishes when anhydrous powder excipients (e.g. lactose anhydrous and mannitol powder) are used to formulate the pharmaceutical active into a hard capsule.
Therefore for soft gelatin capsule formulations hydrophilic vehicles are preferred. The use of a co-solvent such as glycerin or propylene glycol in PEGs may be feasible for liquid or semisolid fills.

[4] = Preformulation pH stability study in buffered solutions; format: physicochemical; settings: pH 4 and 7, ambient and stressed (40° C. and 50° C.) storage
Description: as §1

STAT1 = STAT1 level and activation in mice (Western blot, immunoblotting); format: in vivo, DBA/2 mice
Description: To measure the level and activation of STATs, DBA/2 mice are treated for 6-9 days with 20 μg/mouse/day of swainsonine hydrochloride followed by a single intraperitoneal (i.p) injection of either sterile saline or 100 μg of poly IC (i.e., dsRNA, a surrogate for virus) in sterile saline. Two hours later an optimal time for STAT activation, spleens of the mice are homogenized and cytosolic and nuclear cell extracts are prepared. STAT protein levels are measured in the cytosolic and nuclear fractions by Western blot analysis. STAT phosphorylation (i.e. activation) is measured following immunoprecipitation using anti-phosphotyrosine antibodies.
DBA/2 mice received daily ip injections of SW hydrochloride (20 μg/day) for 10 days. On day 11 the mice were injected with Poly IC (100 μg/mouse) or an equivalent volume of PBS 2 h before being sacrificed. Spleen and liver tissues were collected and immediately frozen in liquid nitrogen. Nuclear extracts were prepared and analyzed (8 μg) by immunoblotting with the indicated antibodies. […] Cytosol extracts were prepared and analyzed (20 μg) by immunoblotting with the indicated antibodies. Spleen nuclear extracts were prepared and analyzed (8 μg) by immunoblotting with anti-phosphotyrosine antibodies.

[5] = Preformulation hygroscopicity study of bulk drug (water uptake, Karl Fischer); format: physicochemical; settings: for water absorbed by Karl Fischer: after 48 hours of storage; for water absorbed: 75% RH
Description: as §1

## Cl.O[C@H]1[C@H]2[C@H](O)CCCN2C[C@@H]1O [swainsonine hydrochloride, (−)-(1S,2S,8R,8aR)-1,2,8-trihydroxyoctahydro-indolizidine hydrochloride salt]
[1]
  IC50: 68 ± 21 nM
[2]; 10 μg/ml in drinking water (2 mg/kg/day), FIG. 9
  tumor growth versus control mice: slower growing tumors
[2]; 10 μg/ml in drinking water, at 31 days, untreated 3.33 g
  mean tumor weight: 1.79 g
[3]
  solubility in aqueous and hydrophilic vehicles: highly soluble
[4]
  stability in buffered solutions: stable
STAT1; 20 μg/day ip for 10 days, then Poly IC 100 μg/mouse, FIG. 10A
  activation of STAT1 in spleen: increases the activation
STAT1; 20 μg/day ip, spleen
  STAT1 cytosolic protein levels: enhanced
[5]; 20% RH
  water absorbed by Karl Fischer: 1.9%
[5]; 50% RH
  water absorbed by Karl Fischer: 2.1%
[5]; first 2 hours
  water absorbed: approximately 8 % (w/w)
[5]; first 8 hours
  water absorbed: ~24 % (w/w)
[5]; bulk drug
  hygroscopicity: highly hygroscopic
